{
  "source": "patent US9714266B2",
  "about": "“Estra-1,3,5(10),16-tetraene-3-carboxamides for inhibition of 17β-hydroxysteroid dehydrogenase (AKR1C3)” (priority 2013, dated 2017)",
  "biological_target": "AKR1C3 (Homo sapiens (Human), UniProt P42330)",
  "sequence (P42330 whole entry)": "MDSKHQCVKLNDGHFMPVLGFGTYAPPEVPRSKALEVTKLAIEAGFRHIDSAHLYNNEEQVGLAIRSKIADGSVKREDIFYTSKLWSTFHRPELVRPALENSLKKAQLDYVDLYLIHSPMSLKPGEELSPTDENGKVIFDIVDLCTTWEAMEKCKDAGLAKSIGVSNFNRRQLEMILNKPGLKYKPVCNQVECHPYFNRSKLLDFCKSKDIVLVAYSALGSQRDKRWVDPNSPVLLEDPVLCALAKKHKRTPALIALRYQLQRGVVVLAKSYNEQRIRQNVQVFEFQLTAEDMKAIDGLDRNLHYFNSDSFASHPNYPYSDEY",
  "assay": "AKR1C3 enzyme assay (coumberone reduction, fluorescence)",
  "format": "biochemical",
  "conditions": "recombinant human AKR1C3, coumberone 0.3 μM, NADPH 10 μM; read-out: AKR1C3 enzyme inhibition IC50",
  "method": "The AKR1C3-inhibitory action of the substances of this invention was measured in the AKR1C3 assay described in the paragraphs which follow. Essentially, the enzyme activity is measured by quantifying the coumberol formed from coumberone ([…]., and […]. AM. CHEM. SOC. 130, 14123-14128 (2008) […]., Bauman, D. R., Penning, T. M., and […]., Proc. Natl. Acad. Sci. USA 103, 13304-13309 (2006)). In this assay, the increase in the highly fluorescent coumberol can be determined by NADPH (nicotinamide adenine dinucleotide phosphate)-dependent reduction of the nonfluorescent coumberone by AKR1C3. […] NM_003739). This was expressed as the GST (glutathione S-transferase) fusion protein in E. coli and purified by means of glutathione-Sepharose affinity chromatography. The GST was removed by thrombin digestion with subsequent size exclusion chromatography (Dufort, I., Rheault, P., Huang, X F., Soucy, P., and Luu-The, V., Endocrinology 140, 568-574 (1999)). […] The concentration of the AKR1C3 was matched to the respective activity of the enzyme preparation and set such that the assay worked within the linear range. Typical concentrations were in the region of 1 nM. The reaction was stopped by adding 5 μl of a stop solution consisting of the inhibitor EM-1404 [F. Labrie et al. U.S. Pat. […] Subsequently, the fluorescence of coumberol was measured at 520 nm (excitation at 380 nm) with a suitable measuring instrument (Pherastar from BMG Labtechnologies).",
  "note": "Values joined by “and” are separate entries in the source; they are usually repeats but may differ in a detail not shown here. Equal values may be shown once.",
  "data": [
    {"compound": "C[C@]12CC[C@@H]3c4ccc(C(N)=O)cc4CC[C@H]3[C@@H]1CC=C2c1cncnc1", "note": "[Example 5, 17-(pyrimidin-5-yl)oestra-1,3,5(10),16-tetraene-3-carboxamide]", "values": [
      {"measurement": "IC50", "result": "313 nM and 199 nM and 143 nM"}
    ]},
    {"compound": "CC(C)S(=O)(=O)CCNC(=O)c1ccc2c(c1)CC[C@@H]1[C@@H]2CC[C@]2(C)C(c3cncc(F)c3)=CC[C@@H]12", "note": "[Example 42, 17-(5-fluoropyridin-3-yl)-N-[2-(isopropylsulphonyl)ethyl]oestra-1,3,5(10),16-tetraene-3-carboxamide]", "values": [
      {"measurement": "IC50", "result": 11, "unit": "nM"}
    ]},
    {"compound": "CC[C@@H](CO)NC(=O)c1ccc2c(c1)CC[C@@H]1[C@@H]2CC[C@]2(C)C(c3cncc(F)c3)=CC[C@@H]12", "note": "[Example 15, 17-(5-fluoropyridin-3-yl)-N—[(S)-1-(hydroxymethyl)propyl]oestra-1,3,5(10),16-tetraene-3-carboxamide]", "values": [
      {"measurement": "IC50", "result": 25, "unit": "nM"}
    ]},
    {"compound": "C[C@]12CC[C@@H]3c4ccc(C(=O)N5CCC(O)CC5)cc4CC[C@H]3[C@@H]1CC=C2c1cncc(F)c1", "note": "[Example 14, 17-(5-fluoropyridin-3-yl)oestra-1,3,5(10),16-tetraen-3-yl 4-hydroxypiperidin-1-yl ketone]", "values": [
      {"measurement": "IC50", "result": "54 nM and 37 nM"}
    ]},
    {"compound": "CN(CCO)C(=O)c1ccc2c(c1)CC[C@@H]1[C@@H]2CC[C@]2(C)C(c3cncc(F)c3)=CC[C@@H]12", "note": "[Example 44, 17-(5-fluoropyridin-3-yl)-N-(2-hydroxyethyl)-N-methyloestra-1,3,5(10),16-tetraene-3-carboxamide]", "values": [
      {"measurement": "IC50", "result": 12, "unit": "nM"}
    ]},
    {"compound": "C[C@]12CC[C@@H]3c4ccc(C(=O)NCCS(N)(=O)=O)cc4CC[C@H]3[C@@H]1CC=C2c1cccnc1", "note": "[Example 23, 17-(3-pyridyl)-N-(2-sulphamoylethyl)oestra-1,3,5(10),16-tetraene-3-carboxamide]", "values": [
      {"measurement": "IC50", "result": 9, "unit": "nM"}
    ]},
    {"compound": "C[C@]12CC[C@@H]3c4ccc(C(=O)N[C@H]5CCC[C@H]5O)cc4CC[C@H]3[C@@H]1CC=C2c1cncc(F)c1", "note": "[Example 9, 17-(5-fluoropyridin-3-yl)-N-[(1S,2R)-2-hydroxycyclopentyl]oestra-1,3,5(10),16-tetraene-3-carboxamide]", "values": [
      {"measurement": "IC50", "result": "61 nM and 81 nM"}
    ]},
    {"compound": "CCN(CCO)C(=O)c1ccc2c(c1)CC[C@@H]1[C@@H]2CC[C@]2(C)C(c3cncc(F)c3)=CC[C@@H]12", "note": "[Example 32, N-ethyl-17-(5-fluoropyridin-3-yl)-N-(2-hydroxyethyl)oestra-1,3,5(10),16-tetraene-3-carboxamide]", "values": [
      {"measurement": "IC50", "result": 11, "unit": "nM"}
    ]},
    {"compound": "COc1cncc(C2=CC[C@H]3[C@@H]4CCc5cc(C(N)=O)ccc5[C@H]4CC[C@]23C)c1", "note": "[Example 2, 17-(5-methoxypyridin-3-yl)oestra-1,3,5(10),16-tetraene-3-carboxamide]", "values": [
      {"measurement": "IC50", "result": "189 nM and 100 nM"}
    ]},
    {"compound": "C[C@]12CC[C@@H]3c4ccc(C(N)=O)cc4CC[C@H]3[C@@H]1CC=C2c1cncc(C(F)(F)F)c1", "note": "[Example 3, 17-[5-(trifluoromethyl)pyridin-3-yl]oestra-1,3,5(10),16-tetraene-3-carboxamide]", "values": [
      {"measurement": "IC50", "result": "46 nM and 25 nM"}
    ]},
    {"compound": "CNS(=O)(=O)CCNC(=O)c1ccc2c(c1)CC[C@@H]1[C@@H]2CC[C@]2(C)C(c3cncc(C(F)(F)F)c3)=CC[C@@H]12", "note": "[Example 25, N-[2-(N-methylsulphamoyl)ethyl]-17-[5-(trifluoromethyl)pyridin-3-yl]oestra-1,3,5(10),16-tetraene-3-carboxamide]", "values": [
      {"measurement": "IC50", "result": 48, "unit": "nM"}
    ]},
    {"compound": "C[C@]12CC[C@@H]3c4ccc(C(=O)N5CCC[C@H]5C(N)=O)cc4CC[C@H]3[C@@H]1CC=C2c1cncc(F)c1", "note": "[Example 30, 1-{[17-(5-fluoropyridin-3-yl)oestra-1,3,5(10),16-tetraen-3-yl]carbonyl}-L-prolinamide]", "values": [
      {"measurement": "IC50", "result": 12, "unit": "nM"}
    ]},
    {"compound": "CC(C)N(CCO)C(=O)c1ccc2c(c1)CC[C@@H]1[C@@H]2CC[C@]2(C)C(c3cncc(F)c3)=CC[C@@H]12", "note": "[Example 19, 17-(5-fluoropyridin-3-yl)-N-(2-hydroxyethyl)-N-isopropyloestra-1,3,5(10),16-tetraene-3-carboxamide]", "values": [
      {"measurement": "IC50", "result": "60 nM and 48 nM"}
    ]},
    {"compound": "CCNC(=O)c1ccc2c(c1)CC[C@@H]1[C@@H]2CC[C@]2(C)C(c3cncc(F)c3)=CC[C@@H]12", "note": "[Example 39, N-ethyl-17-(5-fluoropyridin-3-yl)oestra-1,3,5(10),16-tetraene-3-carboxamide]", "values": [
      {"measurement": "IC50", "result": 5, "unit": "nM"}
    ]},
    {"compound": "CC(C)(CO)CNC(=O)c1ccc2c(c1)CC[C@@H]1[C@@H]2CC[C@]2(C)C(c3cncc(F)c3)=CC[C@@H]12", "note": "[Example 10, 17-(5-fluoropyridin-3-yl)-N-[2-(hydroxymethyl)-2-methylpropyl]oestra-1,3,5(10),16-tetraene-3-carboxamide]", "values": [
      {"measurement": "IC50", "result": "97 nM and 46 nM"}
    ]},
    {"compound": "C[C@]12CC[C@@H]3c4ccc(C(=O)NCCOCCO)cc4CC[C@H]3[C@@H]1CC=C2c1cncc(F)c1", "note": "[Example 46, 17-(5-fluoropyridin-3-yl)-N-[2-(2-hydroxyethoxy)ethyl]oestra-1,3,5(10),16-tetraene-3-carboxamide]", "values": [
      {"measurement": "IC50", "result": 6, "unit": "nM"}
    ]},
    {"compound": "CC(O)C(C)NC(=O)c1ccc2c(c1)CCC1C2CCC2(C)C(c3cncc(F)c3)=CCC12", "note": "[Example 18, rel-17-(5-fluoropyridin-3-yl)-N-[(1R,2R)-2-hydroxy-1-methylpropyl]oestra-1,3,5(10),16-tetraene-3-carboxamide]", "values": [
      {"measurement": "IC50", "result": "45 nM and 35 nM"}
    ]},
    {"compound": "C[C@]12CC[C@@H]3c4ccc(C(=O)NCCC(N)=O)cc4CC[C@H]3[C@@H]1CC=C2c1cncc(F)c1", "note": "[Example 26, N-(3-amino-3-oxopropyl)-17-(5-fluoropyridin-3-yl)oestra-1,3,5(10),16-tetraene-3-carboxamide]", "values": [
      {"measurement": "IC50", "result": 5, "unit": "nM"}
    ]},
    {"compound": "C[C@H](O)CNC(=O)c1ccc2c(c1)CC[C@@H]1[C@@H]2CC[C@]2(C)C(c3cncc(F)c3)=CC[C@@H]12", "note": "[Example 45, 17-(5-fluoropyridin-3-yl)-N—[(S)-2-hydroxypropyl]oestra-1,3,5(10),16-tetraene-3-carboxamide]", "values": [
      {"measurement": "IC50", "result": 6, "unit": "nM"}
    ]},
    {"compound": "C[C@]12CC[C@@H]3c4ccc(C(=O)NCCS(N)(=O)=O)cc4CC[C@H]3[C@@H]1CC=C2c1cncnc1", "note": "[Example 47, 17-(pyrimidin-5-yl)-N-(2-sulphamoylethyl)oestra-1,3,5(10),16-tetraene-3-carboxamide]", "values": [
      {"measurement": "IC50", "result": 119, "unit": "nM"}
    ]},
    {"compound": "C[C@]12C[C@H](F)[C@@H]3c4ccc(C(=O)NCCS(N)(=O)=O)cc4CC[C@H]3[C@@H]1CC=C2c1cncc(F)c1", "note": "[Example 8, 11β-fluoro-17-(5-fluoropyridin-3-yl)-N-(2-sulphamoylethyl)oestra-1,3,5(10),16-tetraene-3-carboxamide]", "values": [
      {"measurement": "IC50", "result": 73, "unit": "nM"}
    ]},
    {"compound": "C[C@]12CC[C@@H]3c4ccc(C(=O)N[C@H]5CCC[C@@H]5O)cc4CC[C@H]3[C@@H]1CC=C2c1cncc(F)c1", "note": "[Example 11, 17-(5-fluoropyridin-3-yl)-N-[(1S,2S)-2-hydroxycyclopentyl]oestra-1,3,5(10),16-tetraene-3-carboxamide]", "values": [
      {"measurement": "IC50", "result": "34 nM and 20 nM"}
    ]},
    {"compound": "CNC(=O)CCNC(=O)c1ccc2c(c1)CC[C@@H]1[C@@H]2CC[C@]2(C)C(c3cncc(F)c3)=CC[C@@H]12", "note": "[Example 27, 17-(5-fluoropyridin-3-yl)-N-[3-(methylamino)-3-oxopropyl]oestra-1,3,5(10),16-tetraene-3-carboxamide]", "values": [
      {"measurement": "IC50", "result": 5, "unit": "nM"}
    ]}
  ]
}
